Source: US20150087627A1, “COMBINATION OF KINASE INHIBITORS AND USES THEREOF” (Intellikine LLC, priority 2011, published 2015)
Where two headings read alike, the source gives them in different places.

What was measured:
Format in all cases: biochemical
[1] = target: T1, PI3K α (p110α/p85α) (Homo sapiens, UniProt P42336); test: PI 3-Kinase (human) HTRF assay, PI3K α; conditions: read-out: PI3K α IC50
T1 construct: purchased Upstate / Millipore Corporation

[2] = target: T2, PI3K δ (Homo sapiens, UniProt O00329); test: PI 3-Kinase (human) HTRF assay, PI3K δ; conditions: read-out: PI3K δ IC50
T2 construct: purchased Upstate / Millipore Corporation

[3] = target: T3, PI3K γ (p110γ) (Homo sapiens, UniProt P48736); test: PI 3-Kinase (human) HTRF assay, PI3K γ; conditions: read-out: PI3K γ IC50
T3 construct: purchased Upstate / Millipore Corporation

[4] = target: T4, PI3K β (p110β/p85α) (Homo sapiens, UniProt P42338); test: PI 3-Kinase (human) HTRF assay, PI3K β; conditions: read-out: PI3K β IC50
T4 construct: purchased Upstate / Millipore Corporation
T4 sequence (P42338 whole entry): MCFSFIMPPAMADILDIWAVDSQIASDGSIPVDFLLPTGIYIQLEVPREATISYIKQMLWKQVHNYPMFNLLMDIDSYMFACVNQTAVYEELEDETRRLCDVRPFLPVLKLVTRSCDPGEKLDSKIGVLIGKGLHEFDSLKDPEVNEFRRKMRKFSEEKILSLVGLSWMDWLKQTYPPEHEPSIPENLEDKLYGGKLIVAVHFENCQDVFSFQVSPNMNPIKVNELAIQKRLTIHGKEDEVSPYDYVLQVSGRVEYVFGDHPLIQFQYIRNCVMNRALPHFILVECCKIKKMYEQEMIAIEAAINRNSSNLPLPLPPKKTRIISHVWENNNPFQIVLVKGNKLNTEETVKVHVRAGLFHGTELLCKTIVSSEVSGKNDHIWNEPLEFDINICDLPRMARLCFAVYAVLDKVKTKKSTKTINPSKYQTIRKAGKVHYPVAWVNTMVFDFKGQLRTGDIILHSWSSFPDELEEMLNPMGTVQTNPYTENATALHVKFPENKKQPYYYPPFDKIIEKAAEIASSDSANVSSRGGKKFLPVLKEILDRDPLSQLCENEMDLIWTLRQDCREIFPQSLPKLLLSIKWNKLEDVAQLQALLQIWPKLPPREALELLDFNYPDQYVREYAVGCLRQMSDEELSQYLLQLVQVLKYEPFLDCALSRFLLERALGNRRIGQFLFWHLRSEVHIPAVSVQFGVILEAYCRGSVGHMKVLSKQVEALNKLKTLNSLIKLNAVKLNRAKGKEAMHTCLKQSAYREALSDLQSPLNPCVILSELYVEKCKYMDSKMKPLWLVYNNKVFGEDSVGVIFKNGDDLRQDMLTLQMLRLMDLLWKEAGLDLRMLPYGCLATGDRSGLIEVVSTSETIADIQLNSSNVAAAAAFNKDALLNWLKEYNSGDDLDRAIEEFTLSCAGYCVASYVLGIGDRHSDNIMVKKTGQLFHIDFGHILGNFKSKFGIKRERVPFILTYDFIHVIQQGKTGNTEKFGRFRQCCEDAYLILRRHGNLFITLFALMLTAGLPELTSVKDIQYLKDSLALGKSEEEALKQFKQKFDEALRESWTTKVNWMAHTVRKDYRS
T4 sequence (P27986 whole entry partner): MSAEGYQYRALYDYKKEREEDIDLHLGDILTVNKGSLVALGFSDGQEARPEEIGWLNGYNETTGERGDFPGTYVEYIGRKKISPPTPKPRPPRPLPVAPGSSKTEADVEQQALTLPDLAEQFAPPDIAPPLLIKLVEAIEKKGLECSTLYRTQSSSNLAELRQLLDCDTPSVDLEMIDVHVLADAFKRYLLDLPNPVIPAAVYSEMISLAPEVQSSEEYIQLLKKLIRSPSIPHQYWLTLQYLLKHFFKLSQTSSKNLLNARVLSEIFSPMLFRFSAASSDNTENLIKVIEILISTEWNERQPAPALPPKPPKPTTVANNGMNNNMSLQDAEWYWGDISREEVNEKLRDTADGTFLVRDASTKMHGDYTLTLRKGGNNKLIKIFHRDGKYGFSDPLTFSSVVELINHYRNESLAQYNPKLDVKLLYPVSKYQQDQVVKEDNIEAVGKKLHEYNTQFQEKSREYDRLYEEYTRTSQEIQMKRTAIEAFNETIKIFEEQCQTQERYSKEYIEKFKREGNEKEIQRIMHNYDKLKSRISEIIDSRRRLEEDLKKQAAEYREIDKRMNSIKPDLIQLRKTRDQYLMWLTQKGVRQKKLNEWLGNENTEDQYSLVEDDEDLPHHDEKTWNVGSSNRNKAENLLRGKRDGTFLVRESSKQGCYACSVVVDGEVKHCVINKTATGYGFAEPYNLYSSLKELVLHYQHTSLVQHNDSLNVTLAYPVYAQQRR

T1 sequence (P42336 whole entry): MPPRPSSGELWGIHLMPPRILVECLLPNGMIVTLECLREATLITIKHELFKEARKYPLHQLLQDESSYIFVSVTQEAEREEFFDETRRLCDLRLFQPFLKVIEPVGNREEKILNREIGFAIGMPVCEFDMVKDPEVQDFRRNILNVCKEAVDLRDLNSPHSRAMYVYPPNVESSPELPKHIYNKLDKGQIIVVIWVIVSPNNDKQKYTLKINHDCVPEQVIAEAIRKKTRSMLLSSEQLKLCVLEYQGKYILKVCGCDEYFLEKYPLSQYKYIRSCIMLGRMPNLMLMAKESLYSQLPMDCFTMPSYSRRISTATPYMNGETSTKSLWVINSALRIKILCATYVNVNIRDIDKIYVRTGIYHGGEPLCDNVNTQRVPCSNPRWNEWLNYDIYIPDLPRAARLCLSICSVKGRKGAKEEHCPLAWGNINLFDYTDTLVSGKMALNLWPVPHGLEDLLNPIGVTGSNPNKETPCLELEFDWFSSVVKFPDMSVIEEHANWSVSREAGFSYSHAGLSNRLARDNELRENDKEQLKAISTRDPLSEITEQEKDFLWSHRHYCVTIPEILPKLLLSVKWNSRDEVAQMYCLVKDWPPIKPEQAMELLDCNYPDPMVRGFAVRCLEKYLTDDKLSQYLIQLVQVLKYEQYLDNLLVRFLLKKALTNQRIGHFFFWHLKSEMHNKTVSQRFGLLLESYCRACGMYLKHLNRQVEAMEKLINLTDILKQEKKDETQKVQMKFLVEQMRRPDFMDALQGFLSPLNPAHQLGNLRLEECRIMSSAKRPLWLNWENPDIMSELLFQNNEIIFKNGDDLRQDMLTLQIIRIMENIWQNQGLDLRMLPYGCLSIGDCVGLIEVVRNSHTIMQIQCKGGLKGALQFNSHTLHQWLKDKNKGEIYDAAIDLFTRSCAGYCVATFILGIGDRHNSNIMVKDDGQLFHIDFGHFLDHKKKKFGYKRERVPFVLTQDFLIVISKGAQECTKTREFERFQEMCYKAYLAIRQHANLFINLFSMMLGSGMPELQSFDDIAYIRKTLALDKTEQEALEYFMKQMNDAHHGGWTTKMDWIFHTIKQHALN
T1 sequence (P27986 whole entry partner): as the sequence (P27986 whole entry partner) above
T3 sequence (P48736 whole entry): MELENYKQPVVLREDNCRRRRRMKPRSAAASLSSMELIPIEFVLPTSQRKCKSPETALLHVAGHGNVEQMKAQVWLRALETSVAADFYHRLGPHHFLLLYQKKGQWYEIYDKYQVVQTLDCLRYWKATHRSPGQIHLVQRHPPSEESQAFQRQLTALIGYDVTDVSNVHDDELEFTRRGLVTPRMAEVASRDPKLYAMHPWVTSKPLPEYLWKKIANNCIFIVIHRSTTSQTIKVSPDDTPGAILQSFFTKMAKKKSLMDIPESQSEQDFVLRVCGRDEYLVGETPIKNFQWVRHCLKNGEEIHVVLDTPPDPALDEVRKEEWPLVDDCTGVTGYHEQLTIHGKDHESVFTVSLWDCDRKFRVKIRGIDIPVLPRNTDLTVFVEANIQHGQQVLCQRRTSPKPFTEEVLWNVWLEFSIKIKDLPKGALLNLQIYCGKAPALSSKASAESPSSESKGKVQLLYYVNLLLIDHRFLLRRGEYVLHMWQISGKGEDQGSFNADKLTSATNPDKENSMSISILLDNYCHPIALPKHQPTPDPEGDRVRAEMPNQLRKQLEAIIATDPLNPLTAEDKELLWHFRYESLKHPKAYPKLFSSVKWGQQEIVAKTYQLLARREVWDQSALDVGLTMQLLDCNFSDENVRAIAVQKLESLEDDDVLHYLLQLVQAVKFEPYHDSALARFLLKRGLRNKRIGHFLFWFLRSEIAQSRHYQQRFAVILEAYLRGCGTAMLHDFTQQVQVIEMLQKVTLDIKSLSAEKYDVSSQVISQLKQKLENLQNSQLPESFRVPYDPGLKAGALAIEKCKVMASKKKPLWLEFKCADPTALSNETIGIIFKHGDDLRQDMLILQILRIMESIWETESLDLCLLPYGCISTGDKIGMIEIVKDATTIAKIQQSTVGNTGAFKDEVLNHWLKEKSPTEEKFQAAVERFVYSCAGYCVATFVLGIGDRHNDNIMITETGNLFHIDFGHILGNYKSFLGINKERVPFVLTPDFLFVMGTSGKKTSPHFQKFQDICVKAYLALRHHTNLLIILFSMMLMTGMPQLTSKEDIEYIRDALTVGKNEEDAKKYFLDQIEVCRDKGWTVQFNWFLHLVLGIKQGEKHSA
T2 sequence (O00329 whole entry): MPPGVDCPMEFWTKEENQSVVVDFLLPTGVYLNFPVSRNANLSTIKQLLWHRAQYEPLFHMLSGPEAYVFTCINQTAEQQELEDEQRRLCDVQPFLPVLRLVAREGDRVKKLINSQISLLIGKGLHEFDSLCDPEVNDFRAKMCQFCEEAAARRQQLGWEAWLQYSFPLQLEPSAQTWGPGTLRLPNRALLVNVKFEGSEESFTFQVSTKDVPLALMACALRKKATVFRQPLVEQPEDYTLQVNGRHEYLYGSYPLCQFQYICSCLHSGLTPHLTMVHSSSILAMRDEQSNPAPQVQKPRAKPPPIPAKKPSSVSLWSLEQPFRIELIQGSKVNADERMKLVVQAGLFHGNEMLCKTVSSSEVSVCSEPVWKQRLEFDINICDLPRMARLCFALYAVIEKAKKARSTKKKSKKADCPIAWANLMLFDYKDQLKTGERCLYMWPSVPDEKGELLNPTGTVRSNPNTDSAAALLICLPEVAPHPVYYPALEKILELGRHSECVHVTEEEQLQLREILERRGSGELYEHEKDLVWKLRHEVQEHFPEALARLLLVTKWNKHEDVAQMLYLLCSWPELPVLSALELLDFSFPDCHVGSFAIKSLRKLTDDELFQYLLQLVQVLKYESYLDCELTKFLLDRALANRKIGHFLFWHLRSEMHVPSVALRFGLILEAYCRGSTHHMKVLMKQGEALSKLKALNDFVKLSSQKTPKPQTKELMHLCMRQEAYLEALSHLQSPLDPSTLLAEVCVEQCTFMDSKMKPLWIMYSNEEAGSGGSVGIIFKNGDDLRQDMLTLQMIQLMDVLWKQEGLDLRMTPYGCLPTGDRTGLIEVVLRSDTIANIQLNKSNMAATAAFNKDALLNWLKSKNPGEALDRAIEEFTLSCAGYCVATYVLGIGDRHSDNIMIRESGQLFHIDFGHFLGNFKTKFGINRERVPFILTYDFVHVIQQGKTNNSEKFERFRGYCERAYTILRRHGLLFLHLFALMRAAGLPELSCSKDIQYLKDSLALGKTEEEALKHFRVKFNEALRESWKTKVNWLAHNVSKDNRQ
T2 sequence (P27986 whole entry partner): as the sequence (P27986 whole entry partner) above

| IC50 [1] | IC50 [2] | IC50 [3] | IC50 [4] | Compound | IC50 ([1]; Table 4 (PI3K α inhibitors)) | IC50 ([2]; Table 4 (PI3K α inhibitors)) | IC50 ([3]; Table 4 (PI3K α inhibitors)) | IC50 ([4]; Table 4 (PI3K α inhibitors)) |
| --- | --- | --- | --- | --- | --- | --- | --- | --- |
| < 0.1 µM | > 10 µM | < 1 µM | > 10 µM | CC(=O)N1CCN(C(=O)c2cnc3ccc(-c4ccc5oc(N)nc5c4)cn23)CC1 [Compound 113] |  |  |  |  |
| < 0.1 µM | < 10 µM | < 1 µM | < 1 µM | Nc1nc2cc(-c3ccc4ncc(N5CC(N6CCOCC6)C5)nc4c3)cc(F)c2o1 [Compound 361] |  |  |  |  |
| < 0.1 µM | < 10 µM | > 10 µM | < 1 µM | Nc1nc2cc(-c3ccc4ncc(N5CCC(N)CC5)nc4c3)ccc2o1 [Compound 168] |  |  |  |  |
| < 0.1 µM | > 10 µM | < 10 µM | < 10 µM | C[C@H]1COCCN1C(=O)c1cnc2ccc(-c3ccc4oc(N)nc4c3)cn12 [Compound 483] |  |  |  |  |
| < 1 µM | > 10 µM | > 10 µM | > 10 µM | Nc1nc2cc(-c3ccc4ncn(CCCN5CCOCC5)c(=O)c4c3)ccc2o1 [Compound 290] |  |  |  |  |
| < 10 µM | > 10 µM | < 10 µM | > 10 µM | CN1CCN(C(=O)c2cnc3ccc(-c4ccc5oc(N)nc5c4)nn23)CC1 [Compound 104] |  |  |  |  |
| < 0.1 µM | < 1 µM | < 0.1 µM | < 10 µM | Nc1nc2cc(-c3ccc4ncc(-c5ccncc5)nc4c3)ccc2o1 [Compound 71] |  |  |  |  |
|  |  |  |  | CC1(C)CN(C2CN(c3cnc4ccc(-c5ccc6oc(N)nc6c5)nc4n3)C2)CCO1 [Compound 568] | < 1 µM | > 10 µM | < 10 µM | > 10 µM |
| < 0.1 µM | < 10 µM | < 10 µM | < 10 µM | CCN(CC)CC(=O)N1CCN(c2cnc3ccc(-c4ccc5oc(N)nc5c4)cc3n2)CC1 [Compound 279] |  |  |  |  |
| < 0.1 µM | < 1 µM | < 10 µM | < 10 µM | C[C@H]1CN(C2CN(C(=O)c3cnc4ccc(-c5ccc6oc(N)nc6c5)cn34)C2)CCN1 [Compound 510] |  |  |  |  |
| < 1 µM | > 10 µM | > 10 µM | > 10 µM | Nc1nc2cc(-c3ccc4ncc(-c5ccnc(N6CCOCC6)c5)nc4c3)ccc2o1 [Compound 150] |  |  |  |  |
| < 0.1 µM | > 10 µM | < 1 µM | > 10 µM | Cc1ccn(C2CCN(c3cnc4ccc(-c5ccc6oc(N)nc6c5)cc4n3)CC2)n1 [Compound 223] |  |  |  |  |
| < 10 µM | > 10 µM | > 10 µM | > 10 µM | Nc1nc2cc(-c3ccc4ncn(C5CCCC5)c(=O)c4c3)ccc2o1 [Compound 256] |  |  |  |  |
| < 0.1 µM | > 10 µM | < 10 µM | < 0.1 µM | C[C@H]1CN(c2cnc3ccc(-c4ccc5oc(N)nc5c4)cc3c2)CCN1 [Compound 396] |  |  |  |  |
| < 10 µM | > 10 µM | < 1 µM | < 1 µM | Nc1nc2cc(-c3ccc4sc(N)nc4c3)cc(F)c2o1 [Compound 437] |  |  |  |  |
| < 0.1 µM | < 0.1 µM | < 1 µM | < 10 µM | CC1(C)CN(C2CN(C(=O)c3cnc4ccc(-c5ccc6oc(N)nc6c5)cn34)C2)CCN1 [Compound 515] |  |  |  |  |
| < 1 µM | > 10 µM | < 10 µM | < 1 µM | C[C@H]1CN(c2cnc3ccc(-c4ccc5nc(N)oc5c4)cc3n2)CCN1 [Compound 309] |  |  |  |  |
| < 1 µM | < 10 µM | < 1 µM | < 10 µM | CC(C)N1CCC(n2cnc3ccc(-c4cncc(NS(=O)(=O)c5ccc(F)cc5F)c4)cc3c2=O)CC1 [Compound 519] |  |  |  |  |

| IC50 [1] | IC50 [2] | IC50 [3] | IC50 [4] | Compound | IC50 ([1]; Table 4 (PI3K α inhibitors)) | IC50 ([2]; Table 4 (PI3K α inhibitors)) | IC50 ([3]; Table 4 (PI3K α inhibitors)) | IC50 ([4]; Table 4 (PI3K α inhibitors)) |
| --- | --- | --- | --- | --- | --- | --- | --- | --- |
| < 0.1 µM | < 10 µM | < 1 µM | < 10 µM | Nc1nc2cc(-c3ccc4ncc(C(=O)N5CC(N6CC[C@H](O)C6)C5)n4c3)ccc2o1 [Compound 469] |  |  |  |  |
| < 1 µM | > 10 µM | < 0.1 µM | < 0.1 µM | Nc1nc2ccc(-c3ccc4nc(N)sc4c3)cc2o1 [Compound 243] |  |  |  |  |
| < 0.1 µM | < 1 µM | < 1 µM | < 0.1 µM | Nc1nc2cc(-c3ccc4ncc(N5CCN(CC6CC6)CC5)nc4c3)ccc2o1 [Compound 153] |  |  |  |  |
| < 10 µM | > 10 µM | > 10 µM | > 10 µM | Nc1nsc2cc(-c3ccc4ncc(C(=O)N5CCOCC5)n4c3)ccc12 [Compound 489] |  |  |  |  |
| < 1 µM | > 10 µM | < 10 µM | > 10 µM | NC(=O)[C@@H]1CCCN1C(=O)c1cnc2ccc(-c3ccc4oc(N)nc4c3)cn12 [Compound 259] |  |  |  |  |
| < 0.1 µM | < 1 µM | < 1 µM | < 10 µM | Nc1nc2cc(-c3ccc4ncc(C(=O)N5CC(N6CCOCC6)C5)n4c3)ccc2o1 [Compound 266] |  |  |  |  |
| < 0.1 µM | < 10 µM | < 0.1 µM | < 1 µM | Nc1nc2cc(-c3ccc4ncc(C(=O)N5CCOCC5)n4c3)cc(Cl)c2o1 [Compound 359] |  |  |  |  |
| < 10 µM | > 10 µM | > 10 µM | > 10 µM | CN1CCN(CCn2cnc3ccc(-c4ccc5oc(N)nc5c4)cc3c2=O)CC1 [Compound 280] |  |  |  |  |
| < 10 µM | > 10 µM | > 10 µM | > 10 µM | O=C(c1cnc2ccc(-c3ccc4oc(NC5CC5)nc4c3)cn12)N1CCOCC1 [Compound 409] |  |  |  |  |
| < 0.1 µM | < 10 µM | < 1 µM | < 10 µM | COc1ncc(-c2ccc3ncc(C(=O)N4CCOCC4)n3c2)cc1NS(C)(=O)=O [Compound 416] |  |  |  |  |
| < 1 µM | > 10 µM | < 10 µM | > 10 µM | CCN1CCN(C(=O)c2cnc3ccc(-c4ccc5oc(N)nc5c4)cn23)CC1 [Compound 141] |  |  |  |  |
| < 1 µM | > 10 µM | < 10 µM | < 1 µM | CN1CCCN(c2cnc3ccc(-c4ccc5oc(N)nc5c4)cc3n2)CC1 [Compound 136] |  |  |  |  |
| < 10 µM | > 10 µM | > 10 µM | > 10 µM | Nc1nc2ccc(-c3ccc4nnc(C(=O)N5CCCC5)n4c3)cc2o1 [Compound 305] |  |  |  |  |
| < 0.1 µM | < 0.1 µM | < 1 µM | < 0.1 µM | CN1CCC(n2cnc3ccc(-c4cnc(Cl)c(NS(=O)(=O)c5ccccc5)c4)cc3c2=O)CC1 [Compound 527] |  |  |  |  |
| < 1 µM | < 1 µM | < 0.1 µM | < 10 µM | CC(=O)Nc1nc(C)c(-c2ccc3oc(N)nc3c2)s1 [Compound 312] |  |  |  |  |
| < 1 µM | < 1 µM | < 1 µM | < 1 µM | CCN(CC)CCNC(=O)c1cnc2ccc(-c3ccc4oc(N)nc4c3)cn12 [Compound 295] |  |  |  |  |
| < 10 µM | < 10 µM | < 1 µM | < 1 µM | Nc1nc2cc(-c3ccc4sc(N)nc4c3)ccc2o1 [Compound 248] |  |  |  |  |
| < 10 µM | > 10 µM | < 1 µM | < 10 µM | Nc1nc2cc(-c3ccc4c(N)n[nH]c4c3)ccc2o1 [Compound 428] |  |  |  |  |

| Compound | IC50 [1] | IC50 [2] | IC50 [3] | IC50 [4] | IC50 ([1]; Table 4 (PI3K α inhibitors)) | IC50 ([2]; Table 4 (PI3K α inhibitors)) | IC50 ([3]; Table 4 (PI3K α inhibitors)) | IC50 ([4]; Table 4 (PI3K α inhibitors)) |
| --- | --- | --- | --- | --- | --- | --- | --- | --- |
| Nc1cn2cc(-c3ccc4oc(N)nc4c3)ccc2n1 [Compound 245] | < 1 µM | > 10 µM | < 1 µM | < 10 µM |  |  |  |  |
| Nc1nc2cc(-c3ccc4ncc(-c5ccc(N6CCOCC6)nc5)n4c3)ccc2o1 [Compound 51] | < 0.1 µM | < 1 µM | < 1 µM | < 1 µM |  |  |  |  |
| CO[C@H]1CCN(C(=O)c2cnc3ccc(-c4ccc5oc(N)nc5c4)cn23)C1 [Compound 463] | < 0.1 µM | < 10 µM | < 1 µM | < 10 µM |  |  |  |  |
| Cc1ncccc1-c1cnc2ccc(-c3ccc4oc(N)nc4c3)cc2n1 [Compound 185] | < 1 µM | > 10 µM | > 10 µM | > 10 µM |  |  |  |  |
| Nc1nc2cc(-c3ccc4ncc(-c5cccnc5)n4n3)ccc2o1 [Compound 58] | < 0.1 µM | < 0.1 µM | < 0.1 µM | < 0.1 µM |  |  |  |  |
| CC(Oc1nc(-c2ccc3ncc(C(=O)N4CCOCC4)n3c2)cnc1N)C(F)(F)F (stereo not shown) [Compound 411] | < 0.1 µM | < 10 µM | < 1 µM | < 10 µM |  |  |  |  |
| C[C@@H]1CN(C(=O)c2cnc3ccc(-c4ccc5oc(N)nc5c4)cn23)C[C@H](C)O1 [Compound 106] | < 10 µM | > 10 µM | < 10 µM | > 10 µM |  |  |  |  |
| Nc1nc2cccc(-c3ccc4ncc(C(=O)N5CCOCC5)n4c3)c2o1 [Compound 484] | < 1 µM | > 10 µM | > 10 µM | > 10 µM |  |  |  |  |
| Nc1nc2ccc(-c3ccc4ncn(C5CCOCC5)c(=O)c4c3)cc2o1 [Compound 63] | < 10 µM | > 10 µM | > 10 µM | > 10 µM |  |  |  |  |
| CS(=O)(=O)CCN1CCC(Nc2cnc3ccc(-c4ccc5oc(N)nc5c4)cc3n2)CC1 [Compound 181] | < 0.1 µM | < 1 µM | < 0.1 µM | < 10 µM |  |  |  |  |
| COc1ncc(-c2ccc3ncn(C4CCN(C(C)C)CC4)c(=O)c3c2)cc1NS(=O)(=O)c1ccccc1 [Compound 522] | < 0.1 µM | < 0.1 µM | < 0.1 µM | < 0.1 µM |  |  |  |  |
| CN1CC(n2cnc3ccc(-c4ccc5oc(N)nc5c4)cc3c2=O)C1 [Compound 528] | < 1 µM | > 10 µM | > 10 µM | < 10 µM |  |  |  |  |
| Nc1nc2cc(-c3ccn4ncc(C(=O)N5CCOCC5)c4c3)ccc2o1 [Compound 347] | < 1 µM | > 10 µM | < 1 µM | < 10 µM |  |  |  |  |
